Experiments:
Format in all cases: in vivo
[1] = test system: giant foxtail (Setaria faberi); experiment: Test G Post-Emergence Protocol; details: Setaria faberi, post-emergence, 312 h; for pest or weed control at 15.625 g/ha: 15.625 g ai/ha, evaluated after 13 days (100=total damage to plant; 0=no damage to plant), read-out: Foxtail, Giant damage rating; for pest or weed control at 62.5 g/ha: 62.5 g ai/ha, read-out: Foxtail, Giant damage rating (100=total damage to plant; 0=no damage to plant); for pest or weed control at 62.5 g/ha / pest or weed control at 250 g/ha: evaluated after 13 days; for pest or weed control at 250 g/ha: 250 g ai/ha, read-out: damage to plant, Foxtail, Giant (100=total damage to plant; 0=no damage to plant)
Procedure, shortened: (§1)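 A glasshouse post-emergence test: 8-day-old plants sprayed at 15.625, 62.5 or 250 g/ha, then grown at 24/16 °C day/night with 14 h light and 65% humidity. Damage rated 13 days later, 0–100.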

[2] = test system: ivy-leaved morning glory (Ipomoea hederacea); experiment: Test G Post-Emergence Protocol; details: Ipomoea, post-emergence, 312 h; for pest or weed control at 15.625 g/ha: 15.625 g ai/ha, evaluated after 13 days (100=total damage to plant; 0=no damage to plant), read-out: Morningglory, Ivy-leaved damage rating; for pest or weed control at 62.5 g/ha: 62.5 g ai/ha, read-out: Morningglory, Ivy-leaved damage rating (100=total damage to plant; 0=no damage to plant); for pest or weed control at 62.5 g/ha / pest or weed control at 250 g/ha: evaluated after 13 days; for pest or weed control at 250 g/ha: 250 g ai/ha, read-out: damage to plant, Morningglory, Ivy-leaved (100=total damage to plant; 0=no damage to plant)
Procedure, shortened: as §1

[3] = test system: velvetleaf (Abutilon theophrasti); experiment: Test G Post-Emergence Protocol; details: Abutilon theophrasti, post-emergence, 312 h; for pest or weed control at 15.625 g/ha: 15.625 g ai/ha, evaluated after 13 days (100=total damage to plant; 0=no damage to plant), read-out: Velvetleaf damage rating; for pest or weed control at 62.5 g/ha: 62.5 g ai/ha, read-out: Velvetleaf damage rating (100=total damage to plant; 0=no damage to plant); for pest or weed control at 62.5 g/ha / pest or weed control at 250 g/ha: evaluated after 13 days; for pest or weed control at 250 g/ha: 250 g ai/ha, read-out: damage to plant, Velvetleaf (100=total damage to plant; 0=no damage to plant)
Procedure, shortened: as §1

[4] = test system: corn (Zea mays); experiment: Test G Post-Emergence Protocol; details: Zea mays, post-emergence, 312 h; for plant injury at 15.625 g/ha: 15.625 g ai/ha, evaluated after 13 days (100=total damage to plant; 0=no damage to plant), read-out: Corn damage rating; for plant injury at 62.5 g/ha: 62.5 g ai/ha, read-out: Corn damage rating (100=total damage to plant; 0=no damage to plant); for plant injury at 62.5 g/ha / plant injury at 250 g/ha: evaluated after 13 days; for plant injury at 250 g/ha: 250 g ai/ha, read-out: damage to plant, Corn (100=total damage to plant; 0=no damage to plant)
Procedure, shortened: as §1

[5] = test system: redroot pigweed (Amaranthus retroflexus); experiment: Test G Post-Emergence Protocol; details: Amaranthus retroflexus, post-emergence, 312 h; for pest or weed control at 15.625 g/ha: 15.625 g ai/ha, evaluated after 13 days (100=total damage to plant; 0=no damage to plant), read-out: Pigweed, Redroot damage rating; for pest or weed control at 62.5 g/ha: 62.5 g ai/ha, read-out: Pigweed, Redroot damage rating (100=total damage to plant; 0=no damage to plant); for pest or weed control at 62.5 g/ha / pest or weed control at 250 g/ha: evaluated after 13 days; for pest or weed control at 250 g/ha: 250 g ai/ha, read-out: damage to plant, Pigweed, Redroot (100=total damage to plant; 0=no damage to plant)
Procedure, shortened: as §1

[6] = test system: barnyardgrass (Echinochloa crus-galli); experiment: Test G Post-Emergence Protocol; details: Echinochloa crus-galli, post-emergence, 312 h; for pest or weed control at 15.625 g/ha: 15.625 g ai/ha, evaluated after 13 days (100=total damage to plant; 0=no damage to plant), read-out: Barnyardgrass damage rating; for pest or weed control at 62.5 g/ha: 62.5 g ai/ha, read-out: Barnyardgrass damage rating (100=total damage to plant; 0=no damage to plant); for pest or weed control at 62.5 g/ha / pest or weed control at 250 g/ha: evaluated after 13 days; for pest or weed control at 250 g/ha: 250 g ai/ha, read-out: damage to plant, Barnyardgrass (100=total damage to plant; 0=no damage to plant)
Procedure, shortened: as §1

[7] = test system: giant foxtail (Setaria faberi); experiment: Test G Pre-Emergence Protocol; details: Setaria faberi, pre-emergence, 312 h, evaluated after 13 days; for pest or weed control at 15.625 g/ha: 15.625 g ai/ha; for pest or weed control at 15.625 g/ha / pest or weed control at 250 g/ha: read-out: Foxtail, Giant damage rating (100=total damage to plant; 0=no damage to plant); for pest or weed control at 62.5 g/ha: 62.5 g ai/ha, 100=total damage to plant, 0=no damage to plant, read-out: plant damage rating, Foxtail, Giant; for pest or weed control at 250 g/ha: 250 g ai/ha
Procedure, shortened: (§2)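 Pots of seeds in standard soil were grown for one day in a glasshouse (24/16 °C day/night, 14 h light, 65% humidity), then sprayed with compound in acetone/water 50:50 with 0.5% Tween 20 at 15.625, 62.5 or 250 g/ha. Damage was scored after 13 days on a 0 (none) to 100 (total) scale.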

[8] = test system: ivy-leaved morning glory (Ipomoea hederacea); experiment: Test G Pre-Emergence Protocol; details: Ipomoea, pre-emergence, 312 h, evaluated after 13 days; for pest or weed control at 15.625 g/ha: 15.625 g ai/ha, read-out: Morning-glory, Ivy-leaved damage rating (100=total damage to plant; 0=no damage to plant); for pest or weed control at 62.5 g/ha: 62.5 g ai/ha, 100=total damage to plant, 0=no damage to plant, read-out: plant damage rating, Morningglory, Ivy-leaved; for pest or weed control at 250 g/ha: 250 g ai/ha, read-out: Morningglory, Ivy-leaved damage rating (100=total damage to plant; 0=no damage to plant)
Procedure, shortened: as §2

[9] = test system: velvetleaf (Abutilon theophrasti); experiment: Test G Pre-Emergence Protocol; details: Abutilon theophrasti, pre-emergence, 312 h, evaluated after 13 days; for pest or weed control at 15.625 g/ha: 15.625 g ai/ha; for pest or weed control at 15.625 g/ha / pest or weed control at 250 g/ha: read-out: Velvetleaf damage rating (100=total damage to plant; 0=no damage to plant); for pest or weed control at 62.5 g/ha: 62.5 g ai/ha, 100=total damage to plant, 0=no damage to plant, read-out: plant damage rating, Velvetleaf; for pest or weed control at 250 g/ha: 250 g ai/ha
Procedure, shortened: as §2

[10] = test system: corn (Zea mays); experiment: Test G Pre-Emergence Protocol; details: Zea mays, pre-emergence, 312 h, evaluated after 13 days; for plant injury at 15.625 g/ha: 15.625 g ai/ha; for plant injury at 15.625 g/ha / plant injury at 250 g/ha: read-out: Corn damage rating (100=total damage to plant; 0=no damage to plant); for plant injury at 62.5 g/ha: 62.5 g ai/ha, 100=total damage to plant, 0=no damage to plant, read-out: plant damage rating, Corn; for plant injury at 250 g/ha: 250 g ai/ha
Procedure, shortened: as §2

[11] = test system: redroot pigweed (Amaranthus retroflexus); experiment: Test G Pre-Emergence Protocol; details: Amaranthus retroflexus, pre-emergence, 312 h, evaluated after 13 days; for pest or weed control at 15.625 g/ha: 15.625 g ai/ha; for pest or weed control at 15.625 g/ha / pest or weed control at 250 g/ha: read-out: Pigweed, Redroot damage rating (100=total damage to plant; 0=no damage to plant); for pest or weed control at 62.5 g/ha: 62.5 g ai/ha, 100=total damage to plant, 0=no damage to plant, read-out: plant damage rating, Pigweed, Redroot; for pest or weed control at 250 g/ha: 250 g ai/ha
Procedure, shortened: as §2

[12] = test system: barnyardgrass (Echinochloa crus-galli); experiment: Test G Pre-Emergence Protocol; details: Echinochloa crus-galli, pre-emergence, 312 h, evaluated after 13 days; for pest or weed control at 15.625 g/ha: 15.625 g ai/ha, read-out: Barnyard grass damage rating (100=total damage to plant; 0=no damage to plant); for pest or weed control at 62.5 g/ha: 62.5 g ai/ha, 100=total damage to plant, 0=no damage to plant, read-out: plant damage rating, Barnyardgrass; for pest or weed control at 250 g/ha: 250 g ai/ha, read-out: Barnyardgrass damage rating (100=total damage to plant; 0=no damage to plant)
Procedure, shortened: as §2

Compound | pest or weed control at 15.625 g/ha [1] | pest or weed control at 62.5 g/ha [1] | pest or weed control at 250 g/ha [1] | pest or weed control at 15.625 g/ha [2] | pest or weed control at 62.5 g/ha [2] | pest or weed control at 250 g/ha [2] | pest or weed control at 15.625 g/ha [3] | pest or weed control at 62.5 g/ha [3] | pest or weed control at 250 g/ha [3] | plant injury at 15.625 g/ha [4] | plant injury at 62.5 g/ha [4] | plant injury at 250 g/ha [4] | pest or weed control at 15.625 g/ha [5] | pest or weed control at 62.5 g/ha [5] | pest or weed control at 250 g/ha [5] | pest or weed control at 15.625 g/ha [6] | pest or weed control at 62.5 g/ha [6] | pest or weed control at 250 g/ha [6] | pest or weed control at 15.625 g/ha [7] | pest or weed control at 62.5 g/ha [7] | other results
CN1C[C@H](c2ccc(C(F)(F)F)cc2)[C@@H](C(=O)Nc2ccc(F)c(Cl)c2)C1=O (racemic) [Compound 1434] | 0% | 0% | 30% | 0% | 0% | 0% | 0% | 0% | 10% | 10% | 0% | 10% | 0% | 0% | 20% | 0% | 0% | 20% | 0% | 20% | pest or weed control at 250 g/ha [7]: 50%; pest or weed control at 15.625 g/ha [8]: 0%; pest or weed control at 62.5 g/ha [8]: 0%; pest or weed control at 250 g/ha [8]: 0%; pest or weed control at 15.625 g/ha [9]: 0%; pest or weed control at 62.5 g/ha [9]: 0%; pest or weed control at 250 g/ha [9]: 0%; plant injury at 15.625 g/ha [10]: 0%; plant injury at 62.5 g/ha [10]: 0%; plant injury at 250 g/ha [10]: 0%; pest or weed control at 15.625 g/ha [11]: 0%; pest or weed control at 62.5 g/ha [11]: 0%; pest or weed control at 250 g/ha [11]: 0%; pest or weed control at 15.625 g/ha [12]: 0%; pest or weed control at 62.5 g/ha [12]: 0%; pest or weed control at 250 g/ha [12]: 20%
CN1C[C@H](c2ccc(C(F)(F)F)cc2)[C@@H](C(=O)Nc2ncc(Cl)cc2Cl)C1=O (racemic) [Compound 1435] | 0% | 0% | 0% | 0% | 0% | 0% | 0% | 0% | 0% | 0% | 0% | 10% | 0% | 30% | 30% | 0% | 0% | 0% | 0% | 0% | pest or weed control at 250 g/ha [7]: 0%; pest or weed control at 15.625 g/ha [8]: 0%; pest or weed control at 62.5 g/ha [8]: 0%; pest or weed control at 250 g/ha [8]: 0%; pest or weed control at 15.625 g/ha [9]: 0%; pest or weed control at 62.5 g/ha [9]: 0%; pest or weed control at 250 g/ha [9]: 0%; plant injury at 15.625 g/ha [10]: 0%; plant injury at 62.5 g/ha [10]: 0%; plant injury at 250 g/ha [10]: 0%; pest or weed control at 15.625 g/ha [11]: 0%; pest or weed control at 62.5 g/ha [11]: 0%; pest or weed control at 250 g/ha [11]: 0%; pest or weed control at 15.625 g/ha [12]: 0%; pest or weed control at 62.5 g/ha [12]: 0%; pest or weed control at 250 g/ha [12]: 0%
CN1C[C@H](c2ccc(C(F)(F)F)cc2)[C@@H](C(=O)Nc2nccc(C(F)(F)F)c2F)C1=O (racemic) [Compound 1436] | 0% | 0% | 0% | 0% | 0% | 0% | 0% | 0% | 0% | 0% | 0% | 0% | 0% | 0% | 0% | 0% | 0% | 0% | 0% | 0% | pest or weed control at 250 g/ha [7]: 0%; pest or weed control at 15.625 g/ha [8]: 0%; pest or weed control at 62.5 g/ha [8]: 0%; pest or weed control at 250 g/ha [8]: 0%; pest or weed control at 15.625 g/ha [9]: 0%; pest or weed control at 62.5 g/ha [9]: 0%; pest or weed control at 250 g/ha [9]: 0%; plant injury at 15.625 g/ha [10]: 0%; plant injury at 62.5 g/ha [10]: 0%; plant injury at 250 g/ha [10]: 0%; pest or weed control at 15.625 g/ha [11]: 0%; pest or weed control at 62.5 g/ha [11]: 0%; pest or weed control at 250 g/ha [11]: 0%; pest or weed control at 15.625 g/ha [12]: 0%; pest or weed control at 62.5 g/ha [12]: 0%; pest or weed control at 250 g/ha [12]: 0%
